From ChEMBL document CHEMBL1153150, “Synthesis and structure-activity relationship of novel lactam-fused chroman derivatives having dual affinity at the 5-HT(1A) receptor and the serotonin transporter” (Bioorg Med Chem Lett, 2010) come the findings set out here.

The target in test [1] is T1, 5-hydroxytryptamine receptor 1A (Homo sapiens) (UniProt P08908).
T1 sequence (whole entry): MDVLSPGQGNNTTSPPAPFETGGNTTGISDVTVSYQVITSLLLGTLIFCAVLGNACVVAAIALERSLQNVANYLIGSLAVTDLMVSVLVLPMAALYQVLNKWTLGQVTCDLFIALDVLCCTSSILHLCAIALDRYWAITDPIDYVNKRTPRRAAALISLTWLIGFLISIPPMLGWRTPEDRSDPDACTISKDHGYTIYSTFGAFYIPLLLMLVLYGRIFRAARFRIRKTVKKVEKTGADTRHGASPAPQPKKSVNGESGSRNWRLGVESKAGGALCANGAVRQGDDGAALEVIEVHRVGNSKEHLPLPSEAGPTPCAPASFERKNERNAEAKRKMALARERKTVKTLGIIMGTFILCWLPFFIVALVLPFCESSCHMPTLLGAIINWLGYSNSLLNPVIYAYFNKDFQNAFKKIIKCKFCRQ
Kind of test: Agonist activity at human 5HT1A receptor expressed in CHO cells by [35S]GTPgammaS binding assay. It is filed as functional, cell-based.

For test [2], the target named is T2, 5-hydroxytryptamine receptor 1A (Homo sapiens, UniProt P08908).
T2 sequence (P08908 whole entry): T1 sequence (whole entry)
Kind of test: Agonist activity at human 5HT1A receptor expressed in CHO cells assessed as inhibition of forskolin-induced adenylate cyclase activity. In kind it is functional, cell-based.

In test [3] the target is T2, 5-hydroxytryptamine receptor 1A. Kind of test: Displacement of [3H][…] from human 5HT1A receptor expressed in CHO cells. In kind it is cell-based.
For test [4], the target named is Sodium-dependent serotonin transporter (Homo sapiens, UniProt P31645). Nature of the test: Displacement of labeled paroxetine from 5-HT transporter.
Chain of Sodium-dependent serotonin transporter (P31645 whole entry): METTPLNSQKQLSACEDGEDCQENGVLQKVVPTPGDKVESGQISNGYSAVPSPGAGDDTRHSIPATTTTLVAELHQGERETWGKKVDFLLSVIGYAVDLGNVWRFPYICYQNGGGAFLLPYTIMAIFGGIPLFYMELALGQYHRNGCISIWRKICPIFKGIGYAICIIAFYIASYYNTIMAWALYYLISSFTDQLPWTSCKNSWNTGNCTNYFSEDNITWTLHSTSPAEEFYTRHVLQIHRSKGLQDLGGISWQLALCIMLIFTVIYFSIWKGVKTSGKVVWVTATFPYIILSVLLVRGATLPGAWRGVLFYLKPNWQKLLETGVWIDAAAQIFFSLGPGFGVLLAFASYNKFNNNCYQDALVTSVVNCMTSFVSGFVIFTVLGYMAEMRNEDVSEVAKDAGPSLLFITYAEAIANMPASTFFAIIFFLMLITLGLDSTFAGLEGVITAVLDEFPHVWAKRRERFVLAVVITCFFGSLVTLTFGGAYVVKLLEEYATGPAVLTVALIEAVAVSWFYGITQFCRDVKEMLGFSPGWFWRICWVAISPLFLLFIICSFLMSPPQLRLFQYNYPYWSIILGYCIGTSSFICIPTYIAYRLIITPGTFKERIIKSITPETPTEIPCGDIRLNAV

In test [1], `O=C1NCc2ccc3c(c21)CC(N(CCCCc1c[nH]c2ccc(F)cc12)CC1CC1)CO3` (racemic) had an Emax of 87%. Moreover, in test [2], the 50% effective concentration (EC50) came to 49 nM. In addition, the Ki in test [3] was 19 nM; in test [4], 139 nM.

For `O=C1NCc2ccc3c(c21)CC(N(CCCc1c[nH]c2ccc(F)cc12)C1CCC1)CO3` (racemic), the EC50 in test [2] was 350 nM. Also, the Ki in test [3] turned out to be 101 nM; in test [4] it was 63 nM.

As for `CN(CCCc1c[nH]c2ccc(F)cc12)C1COc2ccc3c(c2C1)C(=O)NC3` (racemic), in test [1], the Emax came out at 80%. Also, in test [2], the EC50 turned out to be 75 nM. Also, the values for the Ki in test [3] and in test [4] were 22 nM and 9 nM, respectively.

`CCN(CCCc1c[nH]c2ccc(F)cc12)C1COc2ccc3c(c2C1)C(=O)NC3` (racemic) came in with an Emax in test [1] of 78%. Further, the EC50 in test [2] was found to be 28 nM. For the same compound, the Ki in test [3] turned out to be 2 nM; in test [4], 8 nM.

In the case of `O=C1NCCc2cc(F)c3c(c21)CC(N(CCCc1c[nH]c2ccc(F)cc12)CC1CC1)CO3` (racemic), the Emax in test [1] amounted to 62%. Moreover, the EC50 in test [2] was found to be 101 nM. Further, the Ki in test [3] was determined as 50 nM; in test [4] it was 112 nM.

Turning to `CC(C)N(CCCc1c[nH]c2ccc(F)cc12)C1COc2ccc3c(c2C1)C(=O)NCC3` (racemic), the Emax in test [1] was 94%. For the same compound, the EC50 in test [2] was found to be 252 nM. Further, the Ki in test [3] worked out at 129 nM; in test [4], 8 nM.

As to `CCCN(CCCc1c[nH]c2ccc(F)cc12)C1COc2ccc3c(c2C1)C(=O)NCC3` (racemic), in test [1], the Emax is 100%. Further, in test [2], the EC50 came out at 34 nM. For the same compound, the Ki in test [3] is 13 nM; in test [4] it was 61 nM.

In test [1], `O=C1NCc2ccc3c(c21)CC(N(CCCc1c[nH]c2ccc(F)cc12)C(=O)c1ccccc1)CO3` (racemic) yielded an Emax of 96%. Further, the EC50 in test [2] is 436 nM. The Ki was 85 nM in test [3] and 31 nM in test [4].

The compound `O=C1NCCc2ccc3c(c21)CC(N(CCCc1c[nH]c2ccc(F)cc12)CC1CC1)CO3` (racemic) displayed an Emax in test [1] of 91%. In addition, the EC50 in test [2] worked out at 36 nM. Further, the results for the Ki in test [3] and in test [4] were 19 nM and 26 nM, respectively.

Consider `CC(C)CN(CCCc1c[nH]c2ccc(F)cc12)C1COc2ccc3c(c2C1)C(=O)NC3` (racemic), for which the Ki in test [4] turned out to be 617 nM.

Compound `O=C1NCCc2ccc3c(c21)CC(N(CCCc1c[nH]c2ccc(F)cc12)C1CCC1)CO3` (racemic) gave an Emax in test [1] of 77%. In addition, in test [2], the concentration giving a half-maximal response (EC50) was found to be 54 nM. For the same compound, the Ki in test [3] turned out to be 95 nM; in test [4] it was 28 nM.

On to `CCN(CCCc1c[nH]c2ccc(F)cc12)C1COc2ccc3c(c2C1)C(=O)NCC3` (racemic), for which the Emax in test [1] turned out to be 97%. The EC50 in test [2] was 9 nM. In addition, the Ki worked out at 6 nM in test [3] and 30 nM in test [4].

Turning to `CC(C)CN(CCCc1c[nH]c2ccc(F)cc12)C1COc2ccc3c(c2C1)C(=O)NCC3` (racemic), the results for the Ki in test [3] and in test [4] were 927 nM and 184 nM, respectively.

`O=C1NCc2ccc3c(c21)CC(NCCCc1c[nH]c2ccc(F)cc12)CO3` (racemic) registered an Emax in test [1] of 100%. Also, in test [2], the EC50 turned out to be 62 nM. The Ki worked out at 24 nM in test [3] and 8 nM in test [4].

`CCN(CCCc1c[nH]c2ccc(F)cc12)C1COc2c(F)cc3c(c2C1)C(=O)NCC3` (racemic) yielded an Emax in test [1] of 92%. Also, the EC50 in test [2] is 10 nM. The Ki in test [3] was found to be 4 nM; in test [4] it was 15 nM.

As for `O=C1NCc2ccc3c(c21)CC(NCCCCc1c[nH]c2ccc(F)cc12)CO3` (racemic), in test [1], the Emax was 96%. For the same compound, the EC50 in test [2] was found to be 284 nM. For the same compound, the Ki in test [3] stood at 22 nM; in test [4], 20 nM.

In the case of `O=C1NCCc2cc(F)c3c(c21)CC(NCCCc1c[nH]c2ccc(F)cc12)CO3` (racemic), in test [1], the Emax came out at 98%. Further, in test [2], the EC50 is 4 nM. Further, the Ki in test [3] was determined as 6 nM; in test [4], 27 nM.

On to `N#Cc1ccc2[nH]cc(CCCCN(CC3CC3)C3COc4ccc5c(c4C3)C(=O)NC5)c2c1` (racemic) [listing 1 of 2 here], for which, in test [2], the IC50 is 63 nM. For the same compound, the Ki in test [3] is 4 nM; in test [4], 25 nM.

Regarding `O=C1NCc2ccc3c(c21)CC(N(CCCc1c[nH]c2ccc(F)cc12)CC1CCCCC1)CO3` (racemic), the affinity in test [4], expressed as Ki, was 1240 nM.

`CN(CCCc1c[nH]c2ccc(F)cc12)C1COc2ccc3c(c2C1)C(=O)NCC3` (racemic) came in with an Emax in test [1] of 99%. In test [2], the EC50 was determined as 26 nM. In addition, the Ki was determined as 23 nM in test [3] and 17 nM in test [4].

For the compound `O=C1NCCc2ccc3c(c21)CC(N(CCCc1c[nH]c2ccc(F)cc12)CCC(F)(F)F)CO3` (racemic), the Ki in test [3] was found to be 966 nM; in test [4], 340 nM.

In test [1], `O=C1NCCc2ccc3c(c21)CC(NCCCc1c[nH]c2ccc(F)cc12)CO3` (racemic) came in with an Emax of 87%. The EC50 in test [2] is 25 nM. Moreover, the Ki was found to be 44 nM in test [3] and 10 nM in test [4].

In test [1], `N#Cc1ccc2[nH]cc(CCCNC3COc4ccc5c(c4C3)C(=O)NC5)c2c1` (racemic) had an Emax of 91%. In addition, the EC50 in test [2] worked out at 22 nM. Further, the values for the inhibitory constant (Ki) in test [3] and in test [4] were 36 nM and 13 nM, respectively.

On to `O=C1NCc2ccc3c(c21)CC(N(CCCc1c[nH]c2ccc(F)cc12)CC1CC1)CO3` (racemic) [listing 1 of 2 here], for which, in test [2], the IC50 worked out at 223 nM. The inhibition constant (Ki) was found to be 6 nM in test [3] and 15 nM in test [4].

For the compound `O=C1NCCc2ccc3c(c21)CC(N(CCCc1c[nH]c2ccc(F)cc12)C(=O)c1ccccc1)CO3` (racemic), the Ki was determined as 1220 nM in test [3] and 671 nM in test [4].

For the compound `N#Cc1ccc2[nH]cc(CCCCN(CC3CC3)C3COc4ccc5c(c4C3)C(=O)NC5)c2c1` (racemic) [listing 2 of 2 here], in test [1], the Emax amounted to 0%.

`O=C1NCc2ccc3c(c21)CC(N(CCCc1c[nH]c2ccc(F)cc12)CC1CC1)CO3` (racemic) [listing 2 of 2 here] showed an Emax in test [1] of 0%.

`N#Cc1ccc2[nH]cc(CCCCN(CC3CC3)C3COc4ccc5c(c4C3)C(=O)NC5)c2c1` (single isomer, unassigned; (+)) [listing 1 of 2 here]: the EC50 in test [2] worked out at 19 nM. The figures for the Ki in test [3] and in test [4] were 31 nM and 12 nM, respectively.

For the compound `N#Cc1ccc2[nH]cc(CCCCN(CC3CC3)C3COc4ccc5c(c4C3)C(=O)NC5)c2c1` (single isomer, unassigned; (+)) [listing 2 of 2 here], the Emax in test [1] worked out at 100%.

With `N#Cc1ccc2[nH]cc(CCCCN(CC3CC3)C3COc4ccc5c(c4C3)C(=O)NC5)c2c1` (single isomer, unassigned; (-)) [listing 1 of 2 here], the IC50 in test [2] was 203 nM. The Ki in test [3] worked out at 10 nM; in test [4], 17 nM.

With `O=C1NCc2ccc3c(c21)CC(N(CCCc1c[nH]c2ccc(F)cc12)CC1CC1)CO3` (single isomer, unassigned; (-)) [listing 1 of 2 here], the IC50 in test [2] stood at 320 nM. Further, the values for the Ki in test [3] and in test [4] were 8 nM and 6 nM, respectively.

In the case of `N#Cc1ccc2[nH]cc(CCCCN(CC3CC3)C3COc4ccc5c(c4C3)C(=O)NC5)c2c1` (single isomer, unassigned; (-)) [listing 2 of 2 here], the Emax in test [1] was 0%.

In turn, `O=C1NCc2ccc3c(c21)CC(N(CCCc1c[nH]c2ccc(F)cc12)CC1CC1)CO3` (single isomer, unassigned; (-)) [listing 2 of 2 here] registered an Emax in test [1] of 0%.

Take `O=C1NCc2ccc3c(c21)CC(N(CCCc1c[nH]c2ccc(F)cc12)CC1CC1)CO3` (stereo in doubt; (+)-46) [listing 1 of 2 here]: in test [2], the EC50 was determined as 24 nM. For the same compound, the Ki was 3 nM in test [3] and 5 nM in test [4].

`O=C1NCc2ccc3c(c21)CC(N(CCCc1c[nH]c2ccc(F)cc12)CC1CC1)CO3` (stereo in doubt; (+)-46) [listing 2 of 2 here] showed an Emax in test [1] of 84%.
